Patent US20260224758A1, “ALPHA-SYNUCLEIN BINDERS AND METHODS OF USE” (Merck Sharp & Dohme LLC, priority 2023, published 2026)
pKi: −log10 of the molar value. Where two headings read alike, the source gives them in different places.

Target: T1, triton-extracted alpha-synuclein from PD Tissue (Homo sapiens, UniProt P37840)
T1 construct: tissue Analytic Biological Services Inc; host or cells: human PD temporal cortex grey matter, Triton X-100 insoluble pellet
Test: Alpha-synuclein tissue homogenate binding assay (Assay 1), displacement of [^3H]-1000
Conditions: read-out: α-synuclein Tissue Ki (Assay 1)
Experimental: Frozen human brain tissues from PD patients were purchased from Analytic Biological Services Inc. The samples were post-mortem tissues from donors with clinical diagnosis of late stage of PD. Alpha-synuclein, tau and amyloid burden was determined through a combination of immunohistochemistry on frozen thin coronal sections, as well as alpha Lisa-based quantification of protein levels in a detergent insoluble protein fraction. A tissue sample of temporal cortex was identified from one donor as having moderate to high alpha-synuclein burden, low amyloid and minimal to no tau pathology. The detergent insoluble fraction of temporal cortex from this patient was used to support homogenate binding studies. Grey matter was dissected out of the temporal cortex tissue with a dissecting blade and minced with fine dissecting scissors. […] Homogenates were centrifuged at 100,000×g for 45 minutes. The pellet was resuspended in TBS-TX buffer, using a Polytron at highest setting for 30 seconds at 4° C. Homogenates were centrifuged at 100,000×g for 45 minutes and the pellet was resuspended in TBS-TX buffer. A BCA protein assay was performed on the final homogenate to determine the protein concentration. […] For displacement a-synuclein binding assay, compounds and control were solvated in dimethyl sulfoxide (DMSO) and transferred using focused acoustic energy by an Echo 655 liquid handling instrument (Beckman Coulter, Indianapolis, IN) into designated wells of uniquely bar coded 96-well v-bottom low binding polypropylene microplates (Thermo Scientific, 249946). Compound dose response curves were prepared in a 10-point, 3-fold fashion within columns 2-11 of the microplate from high to low compound concentrations. […] Liquid-handling steps for dispensing insoluble fractions of PD brain homogenates and radioligand were performed using a Bravo automated liquid handling platform equipped with a 96LT disposable tip head (Agilent Technologies, Santa Clara. CA). […] The incubation was terminated by rapid filtration through UniFilter-96 GF/C microplates (pre-treated for 30 minutes with 0.2% Polyethylenimine at 4° C.) by using a FilterMate Harvester (PerkinElmer). […] The bottom of each UniFilter-96 GF/C microplate was adhesively sealed (PerkinElmer 6005199) prior to the addition of 50 μL MicroScint-20 liquid scintillation cocktail (PerkinElmer 6013621) to each well. A clear adhesive seal (TopSeal-A PLUS, PerkinElmer 6050185) was then applied to the top of each microplate and counted 1 minute/well on MicroBeta^2 system (PerkinElmer.

[1] = insoluble fraction of PD brain homogenate, [^3H]-1000 3.0 nM, Kd 0.90 nM

pKi [1]	pKi	Structure (SMILES)
9.04		COC[C@H]1CN(c2ncc(C#Cc3cnc(-c4cnn(CCF)c4)nc3)cn2)CCN1c1ccncn1 [Example 54, (R)-2-(1-(2-fluoroethyl)-1H-pyrazol-4-yl)-5-((2-(3-(methoxymethyl)-4-(pyrimidin-4-yl)piperazin-1-yl)pyrimidin-5-yl)ethynyl)pyrimidine]
8.18		FCCOC[C@H]1CN(c2ncc(C#Cc3cnc(-c4cnco4)nc3)cn2)CCN1c1ncncn1 [Example 55, (R)-5-(5-((2-(3-((2-fluoroethoxy)methyl)-4-(1,3,5-triazin-2-yl)piperazin-1-yl)pyrimidin-5-yl)ethynyl)pyrimidin-2-yl)oxazole]
9.19		COC[C@H]1CN(c2ncc(C#Cc3cnc(-c4cnn(CF)c4)nc3)cn2)CCN1c1ncncn1 [Example 56, (R)-2-(4-(5-((2-(1-(fluoromethyl)-1H-pyrazol-4-yl)pyrimidin-5-yl)ethynyl)pyrimidin-2-yl)-2-(methoxymethyl)piperazin-1-yl)-1,3,5-triazine]
8.78		COC[C@H]1CN(c2ncc(C#Cc3ccc(-n4cnnc4)nc3)c(F)n2)CCN1c1ccncn1 [Example 58, (R)-5-((6-(4H-1,2,4-triazol-4-yl)pyridin-3-yl)ethynyl)-4-fluoro-2-(3-(methoxymethyl)-4-(pyrimidin-4-yl)piperazin-1-yl)pyrimidine]
8.04		Nc1cnn(-c2ncc(C#Cc3cnc(N4CCN(c5ncncn5)[C@@H](COCCF)C4)nc3)cn2)c1 [Example 73, (R)-1-(5-((2-(3-((2-fluoroethoxy)methyl)-4-(1,3,5-triazin-2-yl)piperazin-1-yl)pyrimidin-5-yl)ethynyl)pyrimidin-2-yl)-1H-pyrazol-4-amine]
8.94		COC[C@H]1CN(c2ncc(C#Cc3ccc(N4CCC(n5nccn5)CC4)nc3)cn2)CCN1c1ncccn1 [Example 76, (R)-5-((6-(4-(2H-1,2,3-triazol-2-yl)piperidin-1-yl)pyridin-3-yl)ethynyl)-2-(3-(methoxymethyl)-4-(pyrimidin-2-yl)piperazin-1-yl)pyrimidine]
8.27		FCCOCCOC[C@H]1CN(c2ncc(C#Cc3cnc(-c4cncnc4)nc3)cn2)CCN1c1ncncn1 [Example 79, (R)-5-((2-(3-((2-(2-fluoroethoxy)ethoxy)methyl)-4-(1,3,5-triazin-2-yl)piperazin-1-yl)pyrimidin-5-yl)ethynyl)-2,5′-bipyrimidine]
8.93		COC[C@H]1CN(c2ncc(C#Cc3ccc(-c4cc(F)ncn4)nc3)cn2)CCN1c1ncc(C#N)cn1 [Example 81, (R)-2-(4-(5-((6-(6-fluoropyrimidin-4-yl)pyridin-3-yl)ethynyl)pyrimidin-2-yl)-2-(methoxymethyl)piperazin-1-yl)pyrimidine-5-carbonitrile]
8.62		Cn1cc(-c2ncc(C#Cc3cnc(N4CCN(c5ncccn5)[C@@H](COCCOCCOCCOCCF)C4)nc3)cn2)cn1 [Example 83, (R)-2-(3-(13-fluoro-2,5,8,11-tetraoxatridecyl)-4-(pyrimidin-2-yl)piperazin-1-yl)-5-((2-(1-methyl-1H-pyrazol-4-yl)pyrimidin-5-yl)ethynyl)pyrimidine]
8.64		COC[C@H]1CN(c2ncncn2)CCN1c1ncc(C#Cc2cnc(-c3cnn(CCF)c3)nc2)cn1 [Example 84, (R)-2-(4-(5-((2-(1-(2-fluoroethyl)-1H-pyrazol-4-yl)pyrimidin-5-yl)ethynyl)pyrimidin-2-yl)-3-(methoxymethyl)piperazin-1-yl)-1,3,5-triazine]
8.98		COC[C@H]1CN(c2ncc(C#Cc3cnc(-c4cnn(CCF)c4)nc3)cn2)CCN1c1ccc(F)cn1 [Example 85, (R)-2-(1-(2-fluoroethyl)-1H-pyrazol-4-yl)-5-((2-(4-(5-fluoropyridin-2-yl)-3-(methoxymethyl)piperazin-1-yl)pyrimidin-5-yl)ethynyl)pyrimidine]
8.59		C[C@H]1CN(c2ccc(F)cn2)CCN1c1ncc(C#Cc2cnc(-n3cnnc3)nc2)cn1 [Example 86, (S)-5-((2-(4H-1,2,4-triazol-4-yl)pyrimidin-5-yl)ethynyl)-2-(4-(5-fluoropyridin-2-yl)-2-methylpiperazin-1-yl)pyrimidine]
9.05		COC[C@@H]1CN(c2ncncn2)CCN1c1ncc(C#Cc2cnc(-c3cnn(CCF)c3)nc2)cn1 [Example 87, (S)-2-(4-(5-((2-(1-(2-fluoroethyl)-1H-pyrazol-4-yl)pyrimidin-5-yl)ethynyl)pyrimidin-2-yl)-3-(methoxymethyl)piperazin-1-yl)-1,3,5-triazine]
9.00		COC[C@H]1CN(c2ncc(C#Cc3cnc(-c4cnn(CCF)c4)nc3)cn2)CCN1c1ncc(F)cn1 [Example 88, (R)-5-fluoro-2-(4-(5-((2-(1-(2-fluoroethyl)-1H-pyrazol-4-yl)pyrimidin-5-yl)ethynyl)pyrimidin-2-yl)-2-(methoxymethyl)piperazin-1-yl)pyrimidine]
8.59		COC[C@H]1CN(c2ncc(C#Cc3cnc(-n4cnnc4)nc3)cn2)CCN1c1ccc(F)cn1 [Example 89, (R)-5-((2-(4H-1,2,4-triazol-4-yl)pyrimidin-5-yl)ethynyl)-2-(4-(5-fluoropyridin-2-yl)-3-(methoxymethyl)piperazin-1-yl)pyrimidine]
8.74		COC[C@H]1CN(c2ncc(C#Cc3ccc(-c4cnn(CCF)c4)nc3)cn2)CCN1c1ncc(F)cn1 [Example 90, (R)-5-fluoro-2-(4-(5-((6-(1-(2-fluoroethyl)-1H-pyrazol-4-yl)pyridin-3-yl)ethynyl)pyrimidin-2-yl)-2-(methoxymethyl)piperazin-1-yl)pyrimidine]
8.61		COC[C@H]1CN(c2ncc(C#Cc3cnc(-c4cnn(CCCF)c4)nc3)cn2)CCN1c1ncncn1 [Example 91, (R)-2-(4-(5-((2-(1-(3-fluoropropyl)-1H-pyrazol-4-yl)pyrimidin-5-yl)ethynyl)pyrimidin-2-yl)-2-(methoxymethyl)piperazin-1-yl)-1,3,5-triazine]
9.08		COC[C@H]1CN(c2ncc(C#Cc3ccc(-c4cnn(C)c4)nc3)cn2)CCN1c1ncc(OCCF)cn1 [Example 92, (R)-5-(2-fluoroethoxy)-2-(2-(methoxymethyl)-4-(5-((6-(1-methyl-1H-pyrazol-4-yl)pyridin-3-yl)ethynyl)pyrimidin-2-yl)piperazin-1-yl)pyrimidine]
8.51		FCCOC[C@H]1CN(c2ncc(C#Cc3cnc(-c4cnco4)nc3)cn2)CCN1c1ncccn1 [Example 93, (R)-5-(5-((2-(3-((2-fluoroethoxy)methyl)-4-(pyrimidin-2-yl)piperazin-1-yl)pyrimidin-5-yl)ethynyl)pyrimidin-2-yl)oxazole]
9.12		COC[C@H]1CN(c2ncc(C#Cc3cnc(-c4cnn(C)c4)nc3)cn2)CCN1c1cc(F)ncn1 [Example 94, (R)-2-(4-(6-fluoropyrimidin-4-yl)-3-(methoxymethyl)piperazin-1-yl)-5-((2-(1-methyl-1H-pyrazol-4-yl)pyrimidin-5-yl)ethynyl)pyrimidine]
	8.89	Cn1cc(-c2ncc(C#Cc3cnc(N4CCN(c5ncncn5)[C@@H](COCF)C4)nc3)cn2)cn1 [Example 95, (R)-2-(2-((fluoromethoxy)methyl)-4-(5-((2-(1-methyl-1H-pyrazol-4-yl)pyrimidin-5-yl)ethynyl)pyrimidin-2-yl)piperazin-1-yl)-1,3,5-triazine]
